Experimental data published in patent publication US11064701B2, “Benzoxaborole compounds” (BASF SE, priority 2016, dated 2021).

Legend:
Experiment in all cases: greenhouse post-emergence herbicidal test
Type in all cases: in vivo
Details in all cases: application rate 2 kg/ha, post-emergence method; scale 0 to 100 (100 = complete destruction)
[1] = tested on: Setaria viridis
Description: (§1) The seeds of the test plants were sown separately for each species. For the post-emergence treatment, the test plants were first grown to a height of 3 to 8 cm, depending on the plant habit, and only then treated with the active ingredients which had been suspended or emulsified in water. For this purpose, the test plants were either sown directly and grown in the same containers, or they were first grown separately as seedlings and transplanted into the test containers a few days prior to treatment. Depending on the species, the plants were kept at 10-25° C. or 20-35° C., respectively. The test period extended over 2 to 4 weeks. During this time, the plants were tended, and their response to the individual treatments was evaluated. Evaluation was carried out using a scale from 0 to 100. 100 means no emergence of the plants, or complete destruction of at least the aerial moieties, and 0 means no damage, or normal course of growth. A moderate herbicidal activity is given at values of at least 60, a good herbicidal activity is given at values of at least 70, and a very good herbicidal activity is given at values of at least 85. The plants used in the greenhouse experiments were of the following species: [table]

[2] = tested on: Avena fatua
Description: as §1

[3] = tested on: Echinocloa crus-galli
Description: as §1

[4] = tested on: Abutilon theophrasti
Description: as §1

[5] = tested on: Amaranthus retroflexus
Description: as §1

[6] = tested on: Alopecurus myosuroides
Description: as §1

| SMILES | herbicidal activity against Setaria viridis [1] | herbicidal activity against Avena fatua [2] | herbicidal activity against Echinocloa crus-galli [3] | herbicidal activity against Abutilon theophrasti [4] | herbicidal activity against Amaranthus retroflexus [5] | herbicidal activity against Alopecurus myosuroides [6] |
| --- | --- | --- | --- | --- | --- | --- |
| O=C(O)COc1ccc2c(c1)B(O)OC2 [I-1] | 100% | 90% | 100% | 90% | 100% | – |
| CCOC(=O)C(C)(C)Oc1ccc2c(c1)B(O)OC2 [I-2] | – | – | – | – | 100% | – |
| COC(=O)COc1ccc2c(c1)B(O)OC2 [I-3] | 100% | 90% | 98% | 100% | 100% | – |
| CC(C)(Oc1ccc2c(c1)B(O)OC2)C(=O)O [I-4] | – | – | 85% | 85% | – | – |
| COC(=O)COc1cc2c(cc1F)COB2O [I-5] | 98% | 98% | 98% | 100% | 100% | 98% |
| O=C(O)COc1cc2c(cc1F)COB2O [I-6] | 100% | 98% | 98% | 100% | 100% | 90% |
| COC(=O)COc1cc2c(cc1Cl)COB2O [I-7] | 100% | 98% | 100% | 100% | 100% | 95% |
| O=C(O)COc1cc2c(cc1Cl)COB2O [I-8] | 95% | 98% | 100% | 100% | 100% | 98% |
| COC(=O)C(Oc1cc2c(cc1F)COB2O)C(=O)OC [I-10] | 95% | – | – | – | 90% | – |
| O=C(O)COc1c(Cl)cc2c(c1Cl)B(O)OC2 [I-15] | 90% | – | 85% | – | 100% | – |
| O=C(O)CSc1cc2c(cc1F)COB2O [I-22] | 100% | – | – | 100% | 100% | – |
| O=C(O)COc1c(F)cc2c(c1F)B(O)OC2 [I-24] | 95% | – | – | 100% | 100% | – |
| O=C(O)CCCOc1cc2c(cc1F)COB2O [I-25] | 95% | – | – | – | 95% | – |
| CCOC(=O)C(F)Oc1ccc2c(c1)B(O)OC2 (stereo not shown) [I-26] | 85% | – | – | 90% | 100% | – |
| COC(=O)CSc1cc2c(cc1F)COB2O [I-28] | 100% | – | – | 100% | 100% | – |
| COC(=O)COc1c(F)cc2c(c1F)B(O)OC2 [I-29] | 100% | – | 95% | – | 100% | – |
| CC(Oc1c(F)cc2c(c1F)B(O)OC2)C(=O)O (stereo not shown) [I-30] | – | – | – | 95% | 100% | 85% |
| O=C(O)COc1c(F)c(F)c2c(c1F)B(O)OC2 [I-33] | 98% | – | – | 98% | 100% | – |
| COC(=O)C(C)Oc1c(F)cc2c(c1F)B(O)OC2 (stereo not shown) [I-35] | 98% | – | – | 100% | 100% | – |
| O=C(O)CS(=O)(=O)c1cc2c(cc1F)COB2O [I-37] | – | – | – | – | 100% | – |
| COC(=O)COc1c(F)c(F)c2c(c1F)B(O)OC2 [I-39] | 100% | – | – | – | 100% | – |
| COC(=O)CS(=O)(=O)c1cc2c(cc1F)COB2O [I-42] | – | – | – | 100% | 100% | – |
